Read-outs that look alike come from different tables or passages of the source.
Biological target: T1, human recombinant DPP-IV enzyme (Homo sapiens, UniProt P27487)
T1 construct: purchased Cayman Chemical
Test: DPP-IV inhibitor screening assay (Cayman kit, fluorogenic H-Gly-Pro-AMC substrate)
Type: biochemical
Details: for DPP-IV inhibitory effect (in words): isolates tested up to 100 μM
Experimental: Briefly, a DDP assay buffer consisting of 20 mM Tris-HCL (pH 8.0), […] and 1 mM EDTA was used for the assay solution. Each of the compounds were initially dissolved in DMSO at a concentration of 1 mM. Subsequently, the final concentration of compounds was diluted to 0.1, 1, 10, 25, 50 and 100 μM, respectively. The human recombinant DPP-IV enzyme and the substrate 5 mM H-Gly-Pro conjugated to aminomethylcoumarin (AMC) were put in the same buffer. Diluted assay buffer (30 μL) and diluted enzyme solution (10 μL) were added to a 96-well plate containing 10 μL of solvent (blank) or 10 μL of solvent-dissolved test compounds. The reaction by adding 50 μL of the diluted solution of the fluorogenic substrate was initiated and cleavage of the peptide bond by DPP released the free AMC group. The fluorescence was measured as an excitation wavelength of 350 nm and an emission wavelength of 450 nm using a plate reader (TECAN, Männedorf, Switzerland). The percentage inhibition was expressed as [(DPP-IV level of vehicle-treated control−DPP-IV level of test samples)/DPP-IV level of vehicle-treated control] × 100. Subsequently, the 50% inhibitory concentration (IC50) was determined using GraphPad Prism software (GaraphPad Software, La Jolla, CA, USA) via a dose–response analysis.

[1] = in vitro, compounds at 0.1-100 μM, values in text, read-out: IC50, inhibition of DPP-IV activity

T1 sequence (P27487 whole entry): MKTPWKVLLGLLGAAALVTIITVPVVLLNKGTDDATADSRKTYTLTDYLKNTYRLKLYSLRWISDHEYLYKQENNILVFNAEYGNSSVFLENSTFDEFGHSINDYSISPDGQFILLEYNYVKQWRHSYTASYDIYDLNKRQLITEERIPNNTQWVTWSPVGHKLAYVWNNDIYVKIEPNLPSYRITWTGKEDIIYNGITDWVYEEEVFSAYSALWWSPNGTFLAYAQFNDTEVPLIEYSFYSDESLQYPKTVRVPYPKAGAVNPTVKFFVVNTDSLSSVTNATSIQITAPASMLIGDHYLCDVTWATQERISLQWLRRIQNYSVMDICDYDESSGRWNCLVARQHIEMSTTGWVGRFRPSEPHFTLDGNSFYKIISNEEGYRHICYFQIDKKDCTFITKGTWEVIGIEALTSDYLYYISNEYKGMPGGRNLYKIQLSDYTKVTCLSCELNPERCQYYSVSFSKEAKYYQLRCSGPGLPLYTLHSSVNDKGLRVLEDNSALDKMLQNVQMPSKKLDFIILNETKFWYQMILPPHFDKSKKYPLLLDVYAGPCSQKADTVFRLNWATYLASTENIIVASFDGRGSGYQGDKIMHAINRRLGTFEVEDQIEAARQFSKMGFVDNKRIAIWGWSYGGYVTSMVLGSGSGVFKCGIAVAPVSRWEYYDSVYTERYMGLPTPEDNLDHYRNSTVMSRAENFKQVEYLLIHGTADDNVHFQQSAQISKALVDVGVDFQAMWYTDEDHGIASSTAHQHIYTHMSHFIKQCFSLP

| IC50 [1] [µM] | DPP-IV inhibitory effect (in words) | IC50 (dose-response curves, mean ± SD of three independent experiments, read-out: IC50, effect on DPP-IV activity (Figure 3)) [µM] | SMILES |
| --- | --- | --- | --- |
| 14.3 | – | – | COc1ccc(C=CC(=O)c2ccc(OC3OC(CO)C(O)C(O)C3O)c(OC)c2O)cc1O (stereo not shown) [Compound 3, 3,2′-dihydroxy-4-3′-dimethoxychalcone-4′-glucoside] |
| – | did not show their activities | – | O=c1c(O)c(-c2ccc(O)c(O)c2)oc2cc(O)cc(O)c12 [Compound 9, quercetin] |
| – | did not show their activities | – | O=c1cc(-c2ccc(O)c(O)c2)oc2cc(O)cc(O)c12 [Compound 8, luteolin] |
| 13.3 | moderate | – | COc1c(O)ccc2c1O/C(=C\c1ccc(O)c(O)c1)C2=O [Compound 6, leptosidin] |
| – | did not show their activities | – | C=C[C@H](O)[C@H](/C=C/C#CC#CC#CC)O[C@@H]1O[C@H](CO)[C@@H](O)[C@H](O)[C@H]1O [Compound 11, (3S,4S)-5E-trideca-1,5-dien-7,9,11-triyne-3,4-diol-4-O-β-glucopyranoside] |
| 21.6 | – | – | COc1ccc(/C=C/C(=O)c2ccc(O)c(OC)c2O)cc1O [Compound 4] |
| – | did not show their activities | – | C/C=C/C#CC#CCCCO[C@@H]1O[C@H](CO)[C@@H](O)[C@H](O)[C@H]1O [Compound 10, bidenoside C] |
| 9.6 | – | 9.55 | COc1c(O)ccc(C(=O)/C=C/c2ccc(O)c(O)c2)c1O [Compound 2, lanceoletin] |
| 64.9 | moderate | – | COc1c(O)ccc2c1O[C@@H](c1ccc(O)c(O)c1)CC2=O [Compound 7, (2R)-8-methoxybutin] |

| SMILES | IC50 [1] [µM] | DPP-IV inhibitory effect (in words) | IC50 (dose-response curves, mean ± SD of three independent experiments, read-out: IC50, effect on DPP-IV activity (Figure 3)) [µM] |
| --- | --- | --- | --- |
| CC#CC#CC#C/C=C/[C@@H](CCCCO)O[C@@H]1O[C@H](CO)[C@@H](O)[C@H](O)[C@H]1O [Compound 1, (5R)-6E-tetradecene-8,10,12-triyne-1-ol-5-O-β-glucoside] | – | did not show their activities | – |

Reference: article PMC7582822, “Constituents of Coreopsis lanceolata Flower and Their Dipeptidyl Peptidase IV Inhibitory Effects” (Molecules, 2020)
